Holding throughout (type): cell-based
For assay [1], the target named is T1, human TLR2/6 (Homo sapiens, UniProt O60603+Q9Y2C9).
T1 construct: FLAG (from vector pFLAG-CMV); expressed in transfected cells; host or cells: SW620 (human)
The experiment in a line: NF-κB dual luciferase reporter assay in SW620 cells transfected with human TLR2+TLR6+CD14. Here is the method: (§1) SW620 cells (a gift from Richard Tapping, USA) were utilised for TLR2/1 and TLR2/6 transient transfection experiments, as, unlike HEK293 cells, they are 1) deficient in significant expression of all three receptors, and 2) poorly responsive to Pam2CSK4 and Pam3CSK4 without exogenously added TLRs (Additional file 1). […] SW620 cells were seeded at 3.75 × 10^4 cells per well of a 48 well plate and transiently transfected 24 hours later using Fugene 6 (Promega) at a ratio of 1 μg DNA: 4 μL Fugene 6. For transfection, expression vectors containing cDNA encoding human (in pFLAG-CMV) or equine (in pcDNA3) TLR2, -1 and -6, and CD14 (in pcDNA3), were mixed as appropriate. TLR cDNA-containing vectors were used at 2.5 ng/well; CD14 cDNA-containing vectors were used at 1.25 ng/well. […] Cells were stimulated for six hours, lysed using diluted passive lysis buffer (PLB; Promega), and NF-κB activation measured by the dual luciferase reporter assay (Promega). […]
(§2) SW620 cells were transiently transfected with reporter constructs and one of four receptor combinations: human TLR2+TLR1+CD14, human TLR2+TLR6+CD14, equine TLR2+TLR1+CD14 or equine TLR2+TLR6+CD14, and stimulated with increasing doses of ligand. EC50 and maximum stimulation values were determined at each heterodimer as measures of ligand potency and efficacy respectively.

Assay [2] has as its target T2, human TLR2 (Homo sapiens, UniProt O60603). The assay is described as follows: NF-κB reporter assay in HEK293 cells transfected with human TLR2 only (+CD14). The conditions noted are these: 20 ng/mL ligand, human TLR2 + human CD14, endogenous TLR1/6. On the procedure:
HEK293 cells were seeded at a density of 3 × 10^4 cells per well of a 96 well plate and transiently transfected 48 h later using JetPEI (Polyplus). For transfection, expression vectors containing cDNA encoding human TLR2, -1 and -6, and CD14, were mixed as appropriate. TLR cDNA-containing and CD14 cDNA-containing vectors were used at 1 ng/well. TLR constructs were replaced as appropriate with empty vector (pcDNA3) to balance the total added DNA amounts. pNF-κB-luc (10 ng/well) and ph-RG-TK (5 ng/well) were added to receptor mixtures, together with 10× TE and 150 mM NaCl to give a total volume of 50 μL per 10 wells. Following mixing of DNA, and per 10 wells, 2 μL JetPEI was added to 48 μL 150 mM NaCl. JetPEI/NaCl was added to the DNA mixtures at a 1:1 ratio and incubated for 30 min at room temperature. Following incubation, transfection mixtures were diluted to 1 mL per 10 wells in complete HEK medium. Old medium was removed from plated cells and replaced with the transfection/complete medium mixtures. […] Cells were stimulated for six hours, lysed using diluted PLB, and NF-κB activation measured by the dual luciferase reporter assay (Promega).
(§3) Supplementary file 1297-9716-44-50-S1.pdf: Additional file 1 Expression of TLRs and responses to synthetic ligands of SW620 and HEK293 cells. […] (A) After 25 PCR cycles, TLR4 was detected in SW620, and TLR1 was detected in HEK293. […]

The subject of assay [3] is equine TLR2/1. The experiment in a line: NF-κB dual luciferase reporter assay in SW620 cells transfected with equine TLR2+TLR1+CD14. The settings on record: for EC50: SW620 cells, equine TLR2+TLR1+CD14, 6 h stimulation, NF-κB luciferase, normalised curves. On the procedure:
as §1, with “ng/well. TLR constructs were replaced with empty vector (pcDNA3), as appropriate, to balance total added DNA amounts. Reporter constructs pNF-κB-luc (Clontech; 25 ng/well) and ph-RG-TK (Promega; 12.5 ng/well), encoding firefly luciferase under an NF-κB promoter and constitutively expressed Renilla luciferase respectively, were then added to all receptor mixtures, together with 10× Tris-EDTA (TE). Following mixing of DNA, and per 4 wells, 0.7 μL Fugene 6 was diluted to 10 μL in serum- and antibiotic-free RPMI and incubated for 5 min. DNA mixtures were then added to the Fugene 6/RPMI mixtures and incubated for 30 min at room temperature. Following incubation, transfection mixtures were diluted to 1 mL per 4 wells in complete SW620 medium.” for “ng/well.”
as §2
In general terms: In a reporter assay the amount or activity of a reporter protein is the signal.

The subject of assay [4] is equine TLR2/6. The experiment in a line: NF-κB dual luciferase reporter assay in SW620 cells transfected with equine TLR2+TLR6+CD14. On the procedure: as §1, §2
Assay [5] has as its target T2, human TLR2. The assay is described as follows: NF-κB reporter assay in SW620 cells transfected with human TLR2 only (+CD14). The arrangement: FLAG (from vector pFLAG-CMV); expressed in transfected cells; host or cells: SW620 (human). The conditions noted are these: 20 ng/mL ligand. On the procedure:
SW620 cells (a gift from Richard Tapping, USA) were utilised for TLR2/1 and TLR2/6 transient transfection experiments, as, unlike HEK293 cells, they are 1) deficient in significant expression of all three receptors, and 2) poorly responsive to Pam2CSK4 and Pam3CSK4 without exogenously added TLRs (Additional file 1). […] SW620 cells were seeded at 3.75 × 10^4 cells per well of a 48 well plate and transiently transfected 24 hours later using Fugene 6 (Promega) at a ratio of 1 μg DNA: 4 μL Fugene 6. For transfection, expression vectors containing cDNA encoding human (in pFLAG-CMV) or equine (in pcDNA3) TLR2, -1 and -6, and CD14 (in pcDNA3), were mixed as appropriate. TLR cDNA-containing vectors were used at 2.5 ng/well; CD14 cDNA-containing vectors were used at 1.25 ng/well. TLR constructs were replaced with empty vector (pcDNA3), as appropriate, to balance total added DNA amounts. […] Cells were stimulated for six hours, lysed using diluted passive lysis buffer (PLB; Promega), and NF-κB activation measured by the dual luciferase reporter assay (Promega).
as §3

Assay [6] concerns the target T3, human TLR2/1 (Homo sapiens, UniProt O60603+Q15399).
T3 construct: FLAG (from vector pFLAG-CMV); expressed in transfected cells; host or cells: SW620 (human)
The experiment in a line: NF-κB dual luciferase reporter assay in SW620 cells transfected with human TLR2+TLR1+CD14. The settings on record: human TLR2+TLR1+CD14, 6 h stimulation, normalised curves. Here is the method:
as §1, §2

Peptide text beside a SMILES is read from it. * marks the point of attachment. X1 = CCCCCCCCCCCCCCCC(=O)OCC(C*)OC(=O)CCCCCCCCCCCCCCC; Palmitoyl = CCCCCCCCCCCCCCCC(=O)*

T2 sequence (O60603 21-784): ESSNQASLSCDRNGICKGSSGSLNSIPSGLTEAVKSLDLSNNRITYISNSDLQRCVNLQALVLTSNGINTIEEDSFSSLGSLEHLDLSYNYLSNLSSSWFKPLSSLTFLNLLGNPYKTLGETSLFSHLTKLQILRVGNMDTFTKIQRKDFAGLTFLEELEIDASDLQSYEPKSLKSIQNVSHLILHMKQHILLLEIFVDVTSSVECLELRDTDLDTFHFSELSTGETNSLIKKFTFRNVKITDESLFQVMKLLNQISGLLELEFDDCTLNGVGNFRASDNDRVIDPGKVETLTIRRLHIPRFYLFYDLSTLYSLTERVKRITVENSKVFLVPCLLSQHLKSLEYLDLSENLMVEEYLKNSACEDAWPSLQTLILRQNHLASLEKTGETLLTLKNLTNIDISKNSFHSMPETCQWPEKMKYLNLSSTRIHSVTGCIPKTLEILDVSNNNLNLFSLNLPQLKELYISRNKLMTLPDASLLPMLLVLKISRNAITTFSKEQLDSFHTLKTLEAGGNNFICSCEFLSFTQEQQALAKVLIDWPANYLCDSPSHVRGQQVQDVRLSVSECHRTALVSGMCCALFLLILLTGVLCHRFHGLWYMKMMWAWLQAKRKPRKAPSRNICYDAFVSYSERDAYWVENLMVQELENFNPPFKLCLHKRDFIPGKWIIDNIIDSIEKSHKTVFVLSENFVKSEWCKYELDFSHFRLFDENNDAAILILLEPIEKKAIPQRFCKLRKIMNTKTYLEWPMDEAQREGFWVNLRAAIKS
T3 sequence (O60603 21-784): as above
T3 sequence (Q15399 25-786): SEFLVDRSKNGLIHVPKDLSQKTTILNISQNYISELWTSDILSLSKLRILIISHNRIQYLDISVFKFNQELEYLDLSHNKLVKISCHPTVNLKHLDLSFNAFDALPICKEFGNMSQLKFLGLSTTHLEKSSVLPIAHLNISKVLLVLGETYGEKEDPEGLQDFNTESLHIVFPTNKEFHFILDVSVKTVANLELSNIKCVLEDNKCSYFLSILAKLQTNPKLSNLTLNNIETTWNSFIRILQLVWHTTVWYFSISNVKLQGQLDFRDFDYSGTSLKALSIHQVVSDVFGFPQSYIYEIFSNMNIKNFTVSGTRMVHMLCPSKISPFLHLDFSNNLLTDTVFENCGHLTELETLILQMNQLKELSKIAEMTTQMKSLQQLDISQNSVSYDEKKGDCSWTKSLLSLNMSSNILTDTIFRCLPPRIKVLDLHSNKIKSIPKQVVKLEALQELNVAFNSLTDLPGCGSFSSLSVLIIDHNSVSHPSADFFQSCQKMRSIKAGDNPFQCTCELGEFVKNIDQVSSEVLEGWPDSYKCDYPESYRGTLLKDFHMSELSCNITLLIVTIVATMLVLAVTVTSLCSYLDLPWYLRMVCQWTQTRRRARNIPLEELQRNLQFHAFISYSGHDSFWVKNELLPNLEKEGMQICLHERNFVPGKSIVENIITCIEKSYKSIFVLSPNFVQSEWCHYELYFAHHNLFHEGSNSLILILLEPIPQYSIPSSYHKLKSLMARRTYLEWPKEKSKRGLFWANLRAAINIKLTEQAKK
T1 sequence (O60603 21-784): as the sequence (O60603 21-784) above
T1 sequence (Q9Y2C9 32-796): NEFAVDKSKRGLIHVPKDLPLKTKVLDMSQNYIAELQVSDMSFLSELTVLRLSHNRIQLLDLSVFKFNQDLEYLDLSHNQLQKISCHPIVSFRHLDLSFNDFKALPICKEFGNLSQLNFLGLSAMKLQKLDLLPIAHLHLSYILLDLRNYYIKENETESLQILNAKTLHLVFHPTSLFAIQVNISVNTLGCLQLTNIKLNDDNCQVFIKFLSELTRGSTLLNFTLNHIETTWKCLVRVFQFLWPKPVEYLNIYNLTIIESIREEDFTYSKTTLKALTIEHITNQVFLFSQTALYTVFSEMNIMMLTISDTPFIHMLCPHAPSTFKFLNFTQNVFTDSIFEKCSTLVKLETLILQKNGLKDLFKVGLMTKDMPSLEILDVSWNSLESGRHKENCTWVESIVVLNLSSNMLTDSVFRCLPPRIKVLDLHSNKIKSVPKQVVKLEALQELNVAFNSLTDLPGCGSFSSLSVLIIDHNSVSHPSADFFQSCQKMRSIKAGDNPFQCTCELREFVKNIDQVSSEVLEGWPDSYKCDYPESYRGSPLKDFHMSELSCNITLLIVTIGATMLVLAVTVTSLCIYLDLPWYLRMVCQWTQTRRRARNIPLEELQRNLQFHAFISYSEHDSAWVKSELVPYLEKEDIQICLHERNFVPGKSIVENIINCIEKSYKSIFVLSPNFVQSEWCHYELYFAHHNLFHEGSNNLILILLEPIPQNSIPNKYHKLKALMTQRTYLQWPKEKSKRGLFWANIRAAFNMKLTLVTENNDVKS

As to `CCCCCCCCCCCCCCCC(=O)OCC(CSC[C@H](N)C(=O)N[C@@H](CO)C(=O)N[C@@H](CCCCN)C(=O)N[C@@H](CCCCN)C(=O)N[C@@H](CCCCN)C(=O)N[C@@H](CCCCN)C(=O)O)OC(=O)CCCCCCCCCCCCCCC` (stereo partly shown) [Pam2CSK4] (H-C(X1)SKKKK-OH; N-terminus and C-terminus assumed), the 50% effective concentration (EC50) was 0.0118 nM in assay [1] (human TLR2+TLR6+CD14, 6 h stimulation, NF-κB luciferase, normalised curves); 0.43 ng/mL in assay [3]; 0.010 ng/mL in assay [4] (equine TLR2+TLR6+CD14, 6 h stimulation, NF-κB luciferase, normalised curves); 3.31 nM in assay [6]. The “NF-κB response of HEK293 with exogenous TLR2 only” value in assay [2] is listed as “respond to both ligands”. The “potency at equine TLR2/1 relative to human TLR2/1” value in assay [3] (more potent at equine TLR2/1 than at human TLR2/1) came out at 10 fold. The “NF-κB response of SW620 with exogenous TLR2 only” value in assay [5] is reported as “respond weakly”.
Take `CCCCCCCCCCCCCCCC(=O)N[C@@H](CSCC(COC(=O)CCCCCCCCCCCCCCC)OC(=O)CCCCCCCCCCCCCCC)C(=O)N[C@@H](CO)C(=O)N[C@@H](CCCCN)C(=O)N[C@@H](CCCCN)C(=O)N[C@@H](CCCCN)C(=O)N[C@@H](CCCCN)C(=O)O` (stereo partly shown) [Pam3CSK4] (Palmitoyl-C(X1)SKKKK-OH; C-terminus assumed): the “stimulation of human TLR2/6” value in assay [1] (data not shown) is “failed to stimulate”. In addition, the “NF-κB response of HEK293 with exogenous TLR2 only” value in assay [2] is “respond to both ligands”. The figures for the EC50 in assay [3] and in assay [6] were 18.73 ng/mL and 0.311 nM, respectively. In addition, the “stimulation of equine TLR2/6” value in assay [4] (data not shown) is given as “failed to stimulate”. Moreover, the “NF-κB response of SW620 with exogenous TLR2 only” value in assay [5] is “not”.

For orientation: EC50 means the concentration at which the effect is half-maximal.

Source of the values: publication PMC3716717, “The molecular basis for recognition of bacterial ligands at equine TLR2, TLR1 and TLR6” (Veterinary Research, 2013).
